Test results as given in US9102688B2, “Sulfonaminoquinoline hepcidin antagonists” (Vifor (International) AG, priority 2011, dated 2015).

biological target: T1, human ferroportin (Homo sapiens, UniProt Q9NP59); assay: ferroportin internalization assay (inhibition of hepcidin-induced internalization of Fpn); assay type: cell-based; settings: MDCK-FPN-HaloTag cells, 100 nM hepcidin, overnight incubation; concentration range from 0.04 to 40 μM
T1 construct: expressed in transfected cells
T1 sequence (Q9NP59 1-571): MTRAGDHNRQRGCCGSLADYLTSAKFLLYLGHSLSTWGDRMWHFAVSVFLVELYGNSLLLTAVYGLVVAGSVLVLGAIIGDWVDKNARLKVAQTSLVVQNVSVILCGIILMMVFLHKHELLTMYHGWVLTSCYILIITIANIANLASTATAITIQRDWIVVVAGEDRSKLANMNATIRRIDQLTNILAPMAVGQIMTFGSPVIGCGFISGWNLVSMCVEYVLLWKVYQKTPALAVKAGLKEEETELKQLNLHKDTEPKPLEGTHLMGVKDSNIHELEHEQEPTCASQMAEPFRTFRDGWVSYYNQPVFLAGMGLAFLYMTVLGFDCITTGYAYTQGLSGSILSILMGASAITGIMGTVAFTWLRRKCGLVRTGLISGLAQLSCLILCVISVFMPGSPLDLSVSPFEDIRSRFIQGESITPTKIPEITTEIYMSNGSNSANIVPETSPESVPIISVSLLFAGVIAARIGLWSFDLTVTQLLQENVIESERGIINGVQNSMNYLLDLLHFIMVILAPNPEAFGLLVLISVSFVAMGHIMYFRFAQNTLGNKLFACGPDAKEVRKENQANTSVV
In short: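 MDCK cells stably expressing human ferroportin–HaloTag were labelled with TMR ligand, then incubated overnight at 37 °C with compound plus 100 nM hepcidin (final). After fixation and nuclear staining, confocal imaging quantified membrane Fpn fluorescence to measure blocking of hepcidin-induced internalization.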

Structure (SMILES)	IC50 [µM]
O=S1(=O)Nc2c(cc(Cl)c3cccnc23)-c2cc(NC(CO)CO)ccc21 [Example 512, 2-(12-Chloro-6,6-dioxo-5,6-dihydro-6λ*6*-thia-4,5-diaza-chrysen-9-ylamino)-propane-1,3-diol]	13.4
Nc1ccc2c(c1)-c1cc(Cl)c3cccnc3c1NS2(=O)=O [Example 519, 12-Chloro-6,6-dioxo-5,6-dihydro-6λ*6*-thia-4,5-diaza-chrysen-9-ylamine]	3.57
CNC(=O)c1ccc2c(c1)-c1ccc3cccnc3c1NS2(=O)=O [Example 522, 6,6-Dioxo-5,6-dihydro-6λ*6*-thia-4,5-diaza-chrysene-9-carboxylic acid methylamide]	13.2
O=C(c1ccc2c(c1)-c1cc(Cl)c3cccnc3c1NS2(=O)=O)N1CCOCC1 [Example 527, (12-Chloro-6,6-dioxo-5,6-dihydro-6λ*6*-thia-4,5-diaza-chrysen-9-yl)-morpholin-4-yl-methanone]	2.74
O=C(c1ccc2c(c1)-c1cc(Cl)c3cccnc3c1NS2(=O)=O)N1CCC(O)C1 (stereo not shown) [Example 531, (12-Chloro-6,6-dioxo-5,6-dihydro-6λ*6*-thia-4,5-diaza-chrysen-9-yl)-(3-hydroxy-pyrrolidin-1-yl)-methanone]	15
NC(=O)c1ccnc2c(NS(=O)(=O)c3ccccc3)cccc12 [Example 539, 8-Benzenesulfonylamino-quinoline-4-carboxylic acid amide]	10.4
CN(C)C(=O)c1ccnc2c3c(ccc12)-c1ccccc1S(=O)(=O)N3 [Example 541, 6,6-Dioxo-5,6-dihydro-6λ*6*-thia-4,5-diaza-chrysene-1-carboxylic acid dimethylamide]	21
CNC(=O)c1ccnc2c3c(ccc12)-c1ccccc1S(=O)(=O)N3 [Example 542, 6,6-Dioxo-5,6-dihydro-6λ*6*-thia-4,5-diaza-chrysene-1-carboxylic acid methylamide]	4.77
O=C(NCCN1CCCCC1)c1ccnc2c3c(ccc12)-c1ccccc1S(=O)(=O)N3 [Example 544, 6,6-Dioxo-5,6-dihydro-6λ*6*-thia-4,5-diaza-chrysene-1-carboxylic acid (2-piperidin-1-yl-ethyl)-amide]	2
CN(C)CCNc1cc2c(c3ncccc13)NS(=O)(=O)c1ccccc1-2 [Example 546, N′-(6,6-Dioxo-5,6-dihydro-6λ*6*-thia-4,5-diaza-chrysen-12-yl)-N,N-dimethyl-ethane-1,2-diamine]	9.98

Second part, the molecule after the results:

IC50 [µM]	Structure (SMILES)
0.42	O=S1(=O)Nc2c(cc(Cl)c3cccnc23)-c2cc(OC3CCCC3)ccc21 [Example 514, 12-Chloro-9-cyclopentyloxy-5H-6-thia-4,5-diaza-chrysene 6,6-dioxide]
4.06	CN(C)C(=O)c1ccc2c(c1)-c1cc(Cl)c3cccnc3c1NS2(=O)=O [Example 525, 12-Chloro-6,6-dioxo-5,6-dihydro-6λ*6*-thia-4,5-diaza-chrysene-9-carboxylic acid dimethylamide]
3.9	COCCNC(=O)c1ccc2c(c1)-c1cc(Cl)c3cccnc3c1NS2(=O)=O [Example 528, 12-Chloro-6,6-dioxo-5,6-dihydro-6λ*6*-thia-4,5-diaza-chrysene-9-carboxylic acid (2-methoxy-ethyl)-amide]
0.99	O=C(OC1CCCC1)c1ccc2c(c1)-c1cc(Cl)c3cccnc3c1NS2(=O)=O [Example 533, 12-Chloro-6,6-dioxo-5,6-dihydro-6λ*6*-thia-4,5-diaza-chrysene-9-carboxylic acid cyclopentyl ester]
6.24	CNC(=O)c1ccnc2c(NS(=O)(=O)c3ccccc3)cccc12 [Example 538, 8-Benzenesulfonylamino-quinoline-4-carboxylic acid methylamide]
12.6	O=S1(=O)Nc2c(cc(Br)c3cccnc23)-c2ccccc21 [Example 545, 12-Bromo-5H-6-thia-4,5-diaza-chrysene 6,6-dioxide]
